Experimental findings from patent US10265286B2, “Sequelae of cardiopulmonary bypass-induced pulmonary injury” (Vanderbilt University, priority 2016, dated 2019) are described below.

Molecules are shown by their SMILES.

Data set [1] can be described thus: Intravenous citrulline dose escalation safety (adverse effects, hypotension). Format: in vivo, human. Here is the method: The initial goal was to test the safety and pharmacokinetics of three doses of intravenous citrulline in children undergoing surgical repair of specific congenital heart defects. […] An adverse drop in mean arterial pressure was defined as a greater than a twenty percent decrease from baseline. The baseline postoperative mean arterial blood pressure was calculated as the average of mean arterial blood pressure measurements collected every 5 minutes for the 30 minutes immediately preceding the administration of the postoperative dose or infusion.

Data set [2] can be described thus: Phase IB study: total respiratory support. Format: in vivo, human. As to conditions: invasive and non-invasive. The source says: The analysis of total respiratory support includes any invasive and non-invasive respiratory support required during the study period. The mean total duration of respiratory support in the citrulline treatment group was less than half the duration in the placebo treatment group; the difference was statistically significant (Table 11).

As for `NC(=O)NCCCC(N)C(=O)O` (stereo not shown) [Citrulline, 2-amino-5-(carbamoylamino)pentanoic acid], the adverse side effects entry in data set [1] (50 mg/kg IV) is “No adverse side effects were noted”. In data set [1] (100 mg/kg IV), the adverse side effects result is “no adverse side effects were noted”. Further, the adverse effects result in data set [1] (IV doses 200, 400, and 600 mg/kg) is “no adverse effects were noted”. Besides, the “adverse effects including hypotension” value in data set [1] (any of 50, 100, 150 mg/kg IV) is reported as “no adverse effects including hypotension”. Further, the adverse side effects entry in data set [1] (bolus 150 mg/kg plus continuous infusion 9 mg/kg/hr) is “No adverse side effects were noted”. Also, the significant adverse events result in data set [1] (bolus 150 mg/kg plus infusion 9 mg/kg/hour for 48 hours, 9 patients) is reported as “one significant adverse event but it was not related to the use of IV citrulline”. Moreover, in data set [2], the “Total duration of respiratory support, Diff (CI) placebo vs citrulline” value is given as 50.7 (5.4, 96.0) hours; the “Total duration of respiratory support, Median” value amounted to 23.6 h; the “Total duration of respiratory support, Range” value is 0.0 to 100.1 h. Moreover, the “Total duration of respiratory support, Mean ± SD” value in data set [2] (N = 11) was 31.2 ± 28.27 h.
